For test [1], the target named is T1, human Keap1 Kelch domain (A321-T609) (Homo sapiens, UniProt Q14145).
T1 construct: human Keap1 Kelch domain (A321-T609) fused with N-terminal 6x His-tag; 6xHis (N); made in house
Nature of the test: Surface plasmon resonance (SPR) direct binding assay, immobilised Keap1 Kelch domain. The note with it: Table 1; for Kd: geometric mean ± sd of at least 3 independent repeats unless stated, 20°C; for koff / kon: single cycle kinetics, 1:1 Langmuir model. The text has this:
(§1) We based the design of our Nrf2-like cyclic peptides around the amino acid sequence of the ETGE motif (namely 12-mer ^73[…]^84L) and SAR studies reported in the literature.[9,10,12,14] The […] motif is known to adopt a beta-turn conformation upon binding to Keap1. Residues Q73-Q75 and L85 stabilise the bound conformation, L76-D77 and E79-G81 bind deep into the pocket with E79 and E82 forming electrostatic interactions with Keap1 and D77 and T80 stabilising the beta-turn via H-bonds with E78 not contributing to the binding. […] The ability of the cyclic peptides to bind to the Kelch domain of Keap1 was evaluated using surface plasma resonance (SPR), where the Kelch domain is immobilised onto a SPR sensor chip. Additionally, we assessed the ability of the peptides to inhibit the PPI between Nrf2 and the Kelch domain of Keap1 using a time-resolved FRET (TR-FRET) assay. Here, the IC50 for inhibition of the interaction between the human Keap1 Kelch domain and an Nrf2-ETGE peptide is measured.
(§2) Surface Plasmon Resonance (SPR)
(§3) Peptide affinities to the Kelch domain of Keap1 is determined in a direct binding assay using 8K surface plasmon resonance (SPR) biosensor (Cytiva) at 20°C. Immobilization of Keap1 Kelch domain on a CM5 sensor chip (Cytiva) is performed using standard amine coupling procedure. The surface is washed with 10mM NaOH, 1M NaCl before activated with EDC/NHS (Cytiva), followed by immobilization of human Keap1 Kelch domain (A321-T609) fused with N-terminal 6x His-tag7 (in 10 mM MES, pH=6.4).
(§4) Finally, the surface is deactivated by Ethanolamine. Immobilization levels are typically 5000-6000 RU.
(§5) The reference spot is treated as described, omitting the injection of Keap1. Compound concentration series are injected over the immobilized protein in increasing concentrations using single cycle kinetics (SCK) in running buffer (10 mM HEPES, 150 mM NaCl, 0.05% Tween20, 1 mM TCEP, pH 7.4). A 1:1 Langmuir interaction model is fitted to the experimental traces, enabling determination of kon, koff and […]
(§6) In the time-resolved Förster resonance energy transfer (TR-FRET) assay8 the IC50 of inhibitors which […]
(§7) are determined. The TR-FRET is measured between a Tb-labelled mAb (Anti—6-His, Tb cryptate Gold, CisBio 61H12TLB) that binds to Keap 1 Kelch domain and d2-labelled SA-biotin-peptide.
(§8) The assay was performed in 384-well white low-volume, medium binding plates (Greiner Bio One, Austria) in 20 mM HEPES pH 7.5, 150 mM NaCl, 2 mM GSH (Sigma-Aldrich, USA),1mM EDTA (Sigma-Aldrich, USA), and 0.01% Pluronic F127 (MilliporeSigma, USA), with a final reaction volume of 10 µL.
(§9) To determine the ability of synthesized peptide to inhibit PPI between the Keap1 Kelch domain and Nrf2, 1nM purified human Keap1 Kelch domain (A321-T609) fused with N-terminal 6x His-tag, 5 nM biotinylated Nrf2 peptide ([…], Genescript, USA), d2-labeled streptavidin (Revvity, USA), and […] anti-His monoclonal antibody tagged with terbium cryptate (Revvity, USA), were incubated in the presence of varying concentrations of investigated peptides for 3 h at room […]
(§10) 7 Li X, Zhang D, Hannink M, Beamer LJ. Crystallization and initial crystallographic analysis of the Kelch domain from human Keap1. Acta
(§11) 8 S. Lee, D. Ali Abed, L. J. Beamer, L. Hu, Development of a Homogeneous Time-Resolved Fluorescence Resonance Energy Transfer (TR-

The target of test [2] is T2, interaction between the human Keap1 Kelch domain and an Nrf2-ETGE peptide (Homo sapiens, UniProt Q14145).
T2 construct: 1nM purified human Keap1 Kelch domain (A321-T609) fused with N-terminal 6x His-tag; made in house
The experiment in a line: Keap1-Nrf2 TR-FRET (HTRF) assay. The test is classed as binding. As to conditions: Table 1; geometric mean ± sd of at least 3 independent repeats unless stated; read-out: TR-FRET IC50.
Excerpt: as §1, §2, §3, §4, §5, §6, §7, §8, §9, §10, §11
Following the incubation, the PHERAstar FSX […] microplate reader was used to measure the acceptor and donor emissions at 665 nm and 620 nm, respectively. The acceptor/donor ratio was used to calculate relative energy transfer. Data was normalized by two-point normalization using neutral and inhibitor controls (neutral control: DMSO, inhibitor control: 0.1nM 2-[[4-[carboxymethyl-(4-methoxyphenyl)sulfonylamino]naphthale n-1-yl]-(4-methoxyphenyl)sulfonylamino]acetic acid; […]
parameter logistic fit and IC50 values were calculated using Genedata screener software (Genedata, […]
For orientation: In TR-FRET formats the signal depends on donor and acceptor labels being close together.

*1 amine or outer side, *2 acyl side, *3 side chain or, on linkers, in order; H or OH if unused. Where a SMILES comes first, the peptide text is derived from it. Bridges are numbered along the chain shown (N, C = ends). X1 = CN(CC(=O)O)c1nc(CC[*:1])cc(CC[*:2])n1; mXylylene = c1cc(C[*:1])cc(C[*:2])c1; CH2COCH2 = O=C(C[*:1])C[*:2]; CH2 = C([*:1])[*:2]

T2 sequence (Q14145 321-609): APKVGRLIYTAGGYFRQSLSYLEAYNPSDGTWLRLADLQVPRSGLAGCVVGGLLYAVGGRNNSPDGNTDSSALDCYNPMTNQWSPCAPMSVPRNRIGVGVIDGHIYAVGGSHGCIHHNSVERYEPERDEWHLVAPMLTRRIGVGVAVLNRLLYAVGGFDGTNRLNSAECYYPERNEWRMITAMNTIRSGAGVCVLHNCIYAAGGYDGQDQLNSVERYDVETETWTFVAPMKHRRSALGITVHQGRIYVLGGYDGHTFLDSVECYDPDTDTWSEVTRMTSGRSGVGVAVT
T1 sequence (Q14145 321-609): as above

On to `CC(=O)N[C@H]1CSCSC[C@@H](C(=O)N[C@@H](CC(C)C)C(N)=O)NC(=O)[C@H](CCC(=O)O)NC(=O)CNC(=O)[C@H]([C@@H](C)O)NC(=O)[C@H](CCC(=O)O)NC(=O)[C@@H]2CCCN2C(=O)[C@H](CC(=O)O)NC(=O)[C@H](CC(C)C)NC(=O)[C@H](CCC(N)=O)NC1=O` [Peptide P1-A] (Ac-CQLDPETGECL-NH2; linker 1-10 via CH2), for which, in test [1], the Kd – broadly, the constant that tells how readily two partners part at equilibrium – came out at 19 ± 1.4 nM; the koff – broadly, a measure of how fast the partners let go of each other – is 0.0073 s⁻¹; the on-rate (kon) – broadly, the rate constant with which the complex forms – is 480000 M⁻¹ s⁻¹. For the same compound, in test [2], the IC50 (commonly the concentration at which inhibition is half-maximal) was 2.9 ± 1.7 nM.
In test [1], `CC(=O)N[C@H]1CSCC(=O)CSC[C@@H](C(=O)N[C@@H](CC(C)C)C(N)=O)NC(=O)[C@H](CCC(=O)O)NC(=O)CNC(=O)[C@H]([C@@H](C)O)NC(=O)[C@H](CCC(=O)O)NC(=O)[C@@H]2CCCN2C(=O)[C@H](CC(=O)O)NC(=O)[C@H](CC(C)C)NC(=O)[C@H](CCC(N)=O)NC1=O` [Peptide P1-B] (Ac-CQLDPETGECL-NH2; linker 1-10 via CH2COCH2) gave a Kd of 27 ± 1.3 nM, a koff of 0.0087 s⁻¹ and an on-rate (kon) of 410000 M⁻¹ s⁻¹. For the same compound, in test [2], the IC50 was 4.4 ± 1.4 nM.
In test [1], `CC(=O)N[C@H]1CSCc2cccc(c2)CSC[C@@H](C(=O)N[C@@H](CC(C)C)C(N)=O)NC(=O)[C@H](CCC(=O)O)NC(=O)CNC(=O)[C@H]([C@@H](C)O)NC(=O)[C@H](CCC(=O)O)NC(=O)[C@@H]2CCCN2C(=O)[C@H](CC(=O)O)NC(=O)[C@H](CC(C)C)NC(=O)[C@H](CCC(N)=O)NC1=O` [Peptide P1-C] (Ac-CQLDPETGECL-NH2; linker 1-10 via mXylylene) had a dissociation constant Kd of 17 ± 1.2 nM, a koff of 0.0078 s⁻¹ and a kon of 470000 M⁻¹ s⁻¹. Besides, the IC50 in test [2] was 2.1 nM.
The matching figures for `CC(=O)N[C@H]1CSCCc2cc(nc(N(C)CC(=O)O)n2)CCSC[C@@H](C(=O)N[C@@H](CC(C)C)C(N)=O)NC(=O)[C@H](CCC(=O)O)NC(=O)CNC(=O)[C@H]([C@@H](C)O)NC(=O)[C@H](CCC(=O)O)NC(=O)[C@@H]2CCCN2C(=O)[C@H](CC(=O)O)NC(=O)[C@H](CC(C)C)NC(=O)[C@H](CCC(N)=O)NC1=O` [Peptide P1-D] (Ac-CQLDPETGECL-NH2; linker 1-10 via X1): 25 ± 1.3 nM, 0.0047 s⁻¹, 200000 M⁻¹ s⁻¹ and 2.9 ± 1.4 nM.
`CC(=O)N[C@@H](CS)C(=O)N[C@@H](CCC(N)=O)C(=O)N[C@@H](CC(C)C)C(=O)N[C@@H](CC(=O)O)C(=O)N1CCC[C@H]1C(=O)N[C@@H](CCC(=O)O)C(=O)N[C@H](C(=O)NCC(=O)N[C@@H](CCC(=O)O)C(=O)N[C@@H](CS)C(=O)N[C@@H](CC(C)C)C(N)=O)[C@@H](C)O` [Peptide P1] (Ac-CQLDPETGECL-NH2): in test [1], the dissociation constant Kd stood at 20 ± 1.2 nM, the koff was 0.0014 s⁻¹ and the kon was determined as 86000 M⁻¹ s⁻¹. Also, the IC50 in test [2] came out at 4.9 ± 1.1 nM.
In test [1], `CC(=O)N[C@@H](CC(C)C)C(=O)N[C@@H](CCC(N)=O)C(=O)N[C@H]1CSCSC[C@@H](C(=O)N[C@@H](CC(C)C)C(N)=O)NC(=O)[C@H](CCC(=O)O)NC(=O)CNC(=O)[C@H]([C@@H](C)O)NC(=O)[C@H](CCC(=O)O)NC(=O)[C@@H]2CCCN2C(=O)[C@H](CC(=O)O)NC1=O` [Peptide P2-A] (Ac-LQCDPETGECL-NH2; linker 3-10 via CH2) gave a Kd of 70 ± 1 nM, a koff of 0.015 s⁻¹ and an association rate constant (kon) of 210000 M⁻¹ s⁻¹. For the same compound, in test [2], the IC50 is 8.3 ± 1.1 nM.
The matching figures for `CC(=O)N[C@@H](CC(C)C)C(=O)N[C@@H](CCC(N)=O)C(=O)N[C@H]1CSCC(=O)CSC[C@@H](C(=O)N[C@@H](CC(C)C)C(N)=O)NC(=O)[C@H](CCC(=O)O)NC(=O)CNC(=O)[C@H]([C@@H](C)O)NC(=O)[C@H](CCC(=O)O)NC(=O)[C@@H]2CCCN2C(=O)[C@H](CC(=O)O)NC1=O` [Peptide P2-B] (Ac-LQCDPETGECL-NH2; linker 3-10 via CH2COCH2): 97 ± 1.4 nM, 0.028 s⁻¹, 350000 M⁻¹ s⁻¹ and 9.8 ± 1.2 nM.
Take `CC(=O)N[C@@H](CC(C)C)C(=O)N[C@@H](CCC(N)=O)C(=O)N[C@H]1CSCc2cccc(c2)CSC[C@@H](C(=O)N[C@@H](CC(C)C)C(N)=O)NC(=O)[C@H](CCC(=O)O)NC(=O)CNC(=O)[C@H]([C@@H](C)O)NC(=O)[C@H](CCC(=O)O)NC(=O)[C@@H]2CCCN2C(=O)[C@H](CC(=O)O)NC1=O` [Peptide P2-C] (Ac-LQCDPETGECL-NH2; linker 3-10 via mXylylene): in test [1], the Kd was 36 ± 1.8 nM, the koff is 0.013 s⁻¹ and the on-rate constant (kon) was determined as 500000 M⁻¹ s⁻¹. The IC50 in test [2] was 5.6 ± 1.1 nM.
In the case of `CC(=O)N[C@@H](CC(C)C)C(=O)N[C@@H](CCC(N)=O)C(=O)N[C@H]1CSCCc2cc(nc(N(C)CC(=O)O)n2)CCSC[C@@H](C(=O)N[C@@H](CC(C)C)C(N)=O)NC(=O)[C@H](CCC(=O)O)NC(=O)CNC(=O)[C@H]([C@@H](C)O)NC(=O)[C@H](CCC(=O)O)NC(=O)[C@@H]2CCCN2C(=O)[C@H](CC(=O)O)NC1=O` [Peptide P2-D] (Ac-LQCDPETGECL-NH2; linker 3-10 via X1), in test [1], binding was put at a Kd of 54 ± 1.2 nM, the koff was 0.0083 s⁻¹ and the kon came to 160000 M⁻¹ s⁻¹. For the same compound, the IC50 in test [2] came to 4.8 ± 1.5 nM.
Compound `CC(=O)N[C@@H](CC(C)C)C(=O)N[C@@H](CCC(N)=O)C(=O)N[C@@H](CS)C(=O)N[C@@H](CC(=O)O)C(=O)N1CCC[C@H]1C(=O)N[C@@H](CCC(=O)O)C(=O)N[C@H](C(=O)NCC(=O)N[C@@H](CCC(=O)O)C(=O)N[C@@H](CS)C(=O)N[C@@H](CC(C)C)C(N)=O)[C@@H](C)O` [Peptide P2] (Ac-LQCDPETGECL-NH2) came in with a Kd in test [1] of 75 nM.
With `CC(=O)N[C@H]1CSCCc2cc(nc(N(C)CC(=O)O)n2)CCSC[C@@H](C(=O)N[C@@H](CC(C)C)C(N)=O)NC(=O)[C@H](CCC(=O)O)NC(=O)CNC(=O)[C@H]([C@@H](C)O)NC(=O)[C@H](CCC(=O)O)NC(=O)[C@@H]2CCCN2C(=O)[C@H](CC(=O)O)NC(=O)[C@H](CC(C)C)NC(=O)[C@H](CCC(N)=O)NC(=O)[C@H](CC(C)C)NC1=O` [Peptide P3-D] (Ac-CLQLDPETGECL-NH2; linker 1-11 via X1), in test [1], binding was put at a Kd of 22 ± 1.3 nM, the koff was 0.0028 s⁻¹ and the kon was 140000 M⁻¹ s⁻¹. The IC50 in test [2] is 2.4 ± 1.3 nM.
Consider `CC(=O)N[C@H]1Cn2cc(nn2)-c2cc(C(=O)O)cc(c2)-c2cn(nn2)C[C@@H](C(=O)N[C@@H](CC(C)C)C(N)=O)NC(=O)[C@H](CCC(=O)O)NC(=O)CNC(=O)[C@H]([C@@H](C)O)NC(=O)[C@H](CCC(=O)O)NC(=O)[C@@H]2CCCN2C(=O)[C@H](CC(=O)O)NC(=O)[C@H](CC(C)C)NC(=O)[C@H](CCC(N)=O)NC(=O)[C@H](CC(C)C)NC1=O` [Peptide P3Aza-E], for which, in test [1], binding was characterised by a dissociation constant (Kd) of 34 ± 1.3 nM, the koff was 0.0054 s⁻¹ and the kon was 170000 M⁻¹ s⁻¹. In test [2], the IC50 amounted to 4 ± 1.4 nM.

For the origin of these results see PMC10566475, “A cell-active cyclic peptide targeting the Nrf2/Keap1 protein–protein interaction” (Chemical Science, 2023).
